Measured values taken from patent US11667602B2, “Compounds and their use” (AstraZeneca AB, priority 2020, dated 2023).
Values after ≈ are worked out from the molar mass of the structure shown.

Tests used:
[1] = Human Plasma Protein Binding (Test B); type: in vitro ADME; conditions: fraction unbound (fu)
Method in brief: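 Human plasma protein binding run per the published Wernevik et al. (2020) integrated DMPK panel protocol. Values are fraction unbound (fu, % free); repeat runs averaged arithmetically.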

[2] = Human Liver Microsomal Stability (Test C); type: in vitro ADME; conditions: human, liver microsomes
Method in brief: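 Human liver microsome incubation per the Wernevik et al. integrated DMPK panel protocol. Intrinsic clearance reported as CLint in μl/min/mg protein, averaged arithmetically over repeat runs.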

[3] = Human Hepatocyte Stability (Test D); type: in vitro ADME; conditions: human, cryopreserved pooled human hepatocytes (LiverPool 10-Donor), geometric mean if run multiple times
Method: Human Hepatocyte Stability (Test D)
The metabolic stability of compounds in human hepatocytes was assessed using the following protocol:
1. Prepare 10 mM stock solutions of compound and control compounds in appropriate solvent (DMSO). Place incubation medium (L-15 Medium) in a 37° C. water bath, and allow warming for at least 15 minutes prior to use.
2. Add 80 μL of acetonitrile to each well of the 96-well deep well plate (“Quenching plate”).
3. In a new 96-well plate, dilute the 10 mM test compounds and the control compounds to 100 μM by combining 198 μL of acetonitrile and 2 μL of 10 mM stock solution.
4. Remove a vial of cryopreserved (less than −150° C.) human hepatocytes (LiverPool™ 10-Donor Human hepatocytes obtained from Bioreclamation IVT (Product No. S01205)) from storage, ensuring that vials remain at cryogenic temperatures until thawing process ensues. As quickly as possible, thaw the cells by placing the vial in a 37° C. water bath and gently shaking the vials. Vials should remain in water bath until all ice crystals have dissolved and are no longer visible. After thawing is complete, spray vial with 70% ethanol, transfer the vial to a bio-safety cabinet.
5. Open the vial and pour the contents into the 50 mL conical tube containing thawing medium. Place the 50 mL conical tube into a centrifuge and spin at 100 g for 10 minutes (room temperature).
6. Using Cellometer® Vision, count cells and determine the viable cell density. Cells with poor viability (<80% viability) are not acceptable for use.
7. Transfer 247.5 μL of hepatocytes into each well of a 96-well cell incubation plate. Place the plate on Eppendorf Thermomixer Comfort plate shaker to allow the hepatocytes to warm for 10 minutes.
8. Add 2.5 μL of 100 μM test compound or control compounds into an incubation well containing cells to initiate the reaction.
9. Incubate the plate at 37° C. and 900 rpm on an Eppendorf Thermomixer Comfort plate shaker.
10. Centrifuge the quenching plates for 20 minutes at 4,000 rpm. Transfer 30 μL of supernatant of each compound into a 96-well analysis plate. 4 compounds are pooled together into one cassette. Then dilute the pooled sample by adding of 180 μl of pure water. All incubations are performed in singlicate.
All calculations were carried out using Microsoft Excel. Peak areas were determined from extracted ion chromatograms. In vitro intrinsic clearance (in vitro Clint, in μL/min/10^6 cells) of parent compound was determined by regression analysis of the Ln percent parent disappearance vs. time curve. The in vitro intrinsic clearance (in vitro Clint, in μL/min/10^6 cells) reported in Table 36, and was determined from the slope value using the following equation: in vitro Clint=kV/N
V=incubation volume (0.25 mL);
N=number of hepatocytes per well (0.25×10^6 cells)
Where the assay was run multiple times for the same compound, the geometric mean is reported.

Solubility (Test F) = type: physicochemical; conditions: arithmetic mean if run multiple times
Method: The assay was conducted according to the Solubility Assay described in pages 164-167 of Wernevik, J. et al., “A Fully Integrated Assay Panel for Early Drug Metabolism and Pharmacokinetics Profiling”, Assay and Drug Development Technologies, 2020, 18(4), 157-179. Data are reported in Table 36 as solubility ([…]. Where the assay was run multiple times for the same compound, the arithmetic mean is reported.

human RXFP1 = target: T1, human RXFP1 (Homo sapiens, UniProt Q9HBX9); experiment: RXFP1 Hu cAMP (Test A); type: cell-based; set-up: expressed in transfected cells; host or cells: Jump-In T-REx CHO-K1 cells (ThermoFisher), induced with 10 ng/ml doxycycline for 24 h; conditions: RXFP1 Hu cAMP; for EC50: read-out: Test A EC50
T1 sequence (Q9HBX9 1-757): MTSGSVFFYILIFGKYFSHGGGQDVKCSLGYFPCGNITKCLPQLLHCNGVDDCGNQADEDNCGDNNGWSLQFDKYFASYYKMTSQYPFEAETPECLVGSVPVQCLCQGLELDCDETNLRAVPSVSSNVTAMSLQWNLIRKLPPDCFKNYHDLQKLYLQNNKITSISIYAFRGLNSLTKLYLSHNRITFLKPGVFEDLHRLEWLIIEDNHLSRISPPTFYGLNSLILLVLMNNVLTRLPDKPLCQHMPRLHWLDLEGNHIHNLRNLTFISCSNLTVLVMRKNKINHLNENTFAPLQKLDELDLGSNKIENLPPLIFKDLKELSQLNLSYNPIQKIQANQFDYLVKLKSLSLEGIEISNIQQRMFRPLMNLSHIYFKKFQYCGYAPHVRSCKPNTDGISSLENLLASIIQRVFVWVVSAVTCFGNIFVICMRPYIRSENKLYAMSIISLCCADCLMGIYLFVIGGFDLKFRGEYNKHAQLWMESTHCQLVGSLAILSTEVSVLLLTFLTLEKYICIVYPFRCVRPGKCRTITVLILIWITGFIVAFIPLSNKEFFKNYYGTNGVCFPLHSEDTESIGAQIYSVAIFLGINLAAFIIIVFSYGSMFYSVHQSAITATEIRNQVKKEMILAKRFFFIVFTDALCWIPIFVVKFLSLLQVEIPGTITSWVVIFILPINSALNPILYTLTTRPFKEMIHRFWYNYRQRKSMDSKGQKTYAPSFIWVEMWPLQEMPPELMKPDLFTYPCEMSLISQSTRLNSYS
Method in brief: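 Cells: CHO-K1 stably carrying human RXFP1, expressed after 24 h 10 ng/ml doxycycline; 0.5 mM IBMX final, HTRF detection after 2 h at room temperature.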

[4] = Rat Hepatocyte Stability (Test E); type: in vitro ADME; conditions: rat, hepatocytes, geometric mean if run multiple times
Method in brief: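 Run per the published AstraZeneca-type rat hepatocyte stability protocol (Wernevik et al. panel). Values are mean intrinsic clearance, Clint in μl/min/10^6 cells; geometric mean used for repeated runs.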

SMILES | Test B Human Plasma Protein Binding (% free) [1] [% free] | microsomal CLint [2] [µL/min/mg] | hepatocyte CLint at 1 µM [3] [µL/min/1e6 cells] | solubility (Solubility (Test F)) [µM] | Test A Sinf (human RXFP1) [%] | EC50 (human RXFP1) [nM] | hepatocyte CLint [4] [µL/min/1e6 cells]
COc1cc(F)c(-c2cnc(CCC(=O)O)cn2)cc1C(=O)N[C@@H]1[C@H]2CC[C@H](C2)[C@@H]1C(=O)Nc1cccc(S(=O)(=O)C(F)(F)F)c1 [Example 238] | – | 42 | 13 | 890 (≈ 592 µg/mL) | 102 | 140 | 27
COc1cc(F)c(-c2cccc(C[C@@H](C(=O)O)N(C)C)c2)cc1C(=O)N[C@@H]1[C@H]2CC[C@H](C2)[C@@H]1C(=O)Nc1cccc(S(=O)(=O)C(F)(F)F)c1 (racemic) [Example 293] | – | 27 | 8.4 | 21 (≈ 14.8 µg/mL) | 118 | 390 | 41
COc1cc(F)c(O[C@H]2CC[C@@H](C(=O)O)CC2)cc1C(=O)N[C@@H]1[C@@H]2C[C@@H]([C@H]3OCO[C@@H]23)[C@@H]1C(=O)Nc1cccc(S(=O)(=O)C(F)(F)F)c1 [Example 461, (1S,4s)-4-(2-Fluoro-4-methoxy-5-(((3aS,4S,5R,6S,7R,7aR)-6-((3-((trifluoromethyl)sulfonyl)phenyl)carbamoyl)hexahydro-4,7-methanobenzo[d][1,3]dioxol-5-yl)carbamoyl)phenoxy)cyclohexane-1-carboxylic acid] | – | 7.5 | 2.9 | 980 (≈ 687 µg/mL) | 100 | 190 | 7.4
COc1cc(F)c(O[C@H]2CC[C@@](C)(C(=O)O)CC2)cc1C(=O)NC1C(C(=O)Nc2cccc(S(=O)(=O)C(F)(F)F)c2)CC2OCOC21 (single isomer, unassigned) [Example 512, (1R,4s)-4-(2-Fluoro-4-methoxy-5-(((3aR*,4S*,5S*,6aS*)-5-((3-((trifluoromethyl)sulfonyl)phenyl)carbamoyl)tetrahydro-4H-cyclopenta[d][1,3]dioxol-4-yl)carbamoyl)phenoxy)-1-methylcyclohexane-1-carboxylic acid] | – | 12 | 4.2 | 880 (≈ 606 µg/mL) | 104 | – | 25
CCC(CC)CNC(=O)[C@H]1[C@@H]2CC[C@@H](C2)[C@H]1NC(=O)c1cc(O[C@H]2CC[C@@H](C(=O)O)CC2)c(F)cc1OC [Example 197, (1S,4s)-4-(5-(((1S,2R,3S,4R)-3-((2-ethylbutyl)carbamoyl)bicyclo[2.2.1]heptan-2-yl)carbamoyl)-2-fluoro-4-methoxyphenoxy)cyclohexane-1-carboxylic acid] | – | 45 | 12 | 1000 (≈ 533 µg/mL) | 106 | 1400 | 28
COc1cc(F)c(O[C@H]2CC[C@@](C)(C(=O)O)CC2)cc1C(=O)N[C@@H]1CCC[C@@H]1C(=O)NCC1(C)CCC1 [Example 67] | – | < 3 | 2.6 | > 1000 | 105 | 270 | 18
COc1cc(F)c(-c2ccc(C(=O)O)cc2)cc1C(=O)Nc1ccccc1C(=O)Nc1cccc(S(=O)(=O)C(F)(F)F)c1 [Example 328, 2′-Fluoro-4′-methoxy-5′-((2-((3-((trifluoromethyl)sulfonyl)phenyl)carbamoyl)phenyl)carbamoyl)-[1,1′-biphenyl]-4-carboxylic acid] | <0.10 | < 3 | 11 | – | 117 | 190 | –
COc1cc(F)c(O[C@H]2CC[C@@](C)(C(=O)O)CC2)cc1C(=O)N[C@@H]1CCC[C@@H]1C(=O)N[C@H](C)C(C)(C)C [Example 65, (1S,4s)-4-(5-(((1R,2S)-2-(((R)-3,3-Dimethylbutan-2-yl)carbamoyl)cyclopentyl)carbamoyl)-2-fluoro-4-methoxyphenoxy)-1-methylcyclohexane-1-carboxylic acid] | – | 5.5 | 3.1 | > 1000 | 99 | 160 | 9.7

Second part, the compound after the results:

Test B Human Plasma Protein Binding (% free) [1] [% free] | microsomal CLint [2] [µL/min/mg] | hepatocyte CLint at 1 µM [3] [µL/min/1e6 cells] | solubility (Solubility (Test F)) [µM] | Test A Sinf (human RXFP1) [%] | EC50 (human RXFP1) [nM] | hepatocyte CLint [4] [µL/min/1e6 cells] | SMILES
<0.30 | 18 | 5 | 880 (≈ 580 µg/mL) | 109 | 120 | – | COc1cc(F)c(-c2ccc(-c3nn[nH]n3)cc2)cc1C(=O)N[C@@H]1[C@H]2CC[C@H](C2)[C@@H]1C(=O)Nc1cccc(S(=O)(=O)C(F)(F)F)c1 [Example 325, (1R,2S,3R,4S)-3-(6-Fluoro-4-methoxy-4′-(1H-tetrazol-5-yl)-[1,1′-biphenyl]-3-carboxamido)-N-(3-((trifluoromethyl)sulfonyl)phenyl)bicyclo[2.2.1]heptane-2-carboxamide]
– | 14 | 9.5 | 190 (≈ 124 µg/mL) | 104 | 50 | 12 | COc1cc(F)c(-c2ccc(C(=O)O)c(O)c2)cc1C(=O)N[C@@H]1[C@H]2CC[C@H](C2)[C@@H]1C(=O)Nc1cccc(S(=O)(=O)C(F)(F)F)c1 [Example 247]
0.26 | – | 13 | 340 (≈ 223 µg/mL) | 105 | 3 | 38 | COc1cc(F)c(O[C@H]2CC[C@@](C)(C(=O)O)CC2)cc1C(=O)N[C@@H]1CCC[C@@H]1C(=O)Nc1ccc(F)c(S(F)(F)(F)(F)F)c1 [Example 352]
